Data reported in patent US10501458B2, “Substituted bicyclic fused ring compounds as indoleamine-2,3-dioxygenase inhibitors” (Merck Sharp & Dohme Corp., priority 2015, dated 2019).

Columns and labels:
[1] = target: T1, TDO (Homo sapiens (Human), UniProt P48775); experiment: A172 kynurenine cell-based assay; settings: A172 human glioblastoma cells, 500 μM L-tryptophan, 48 hours
Method: (§1) Exemplary compounds of the invention were prepared, and tested to determine their effect as TDO and/or IDO inhibitors. Two different assays were employed: 1. a cell-based assay for detecting the effect of test compounds on kynurenine production in two different cancer cell types. This assay utilised cancer cells which expressed either TDO or IDO and as such was used as a means of testing compound activity at these two enzymes in a cell-based context. 2. a TDO and IDO biochemical coupled assay which utilised recombinantly produced and purified TDO and IDO enzymes in combination with the enzyme formamidase. This coupled enzyme system allowed conversion of N-formylkynurenine produced by TDO or IDO activity to kynurenine which was then quantified by fluorescence following addition of Erhlich's Reagent The protocols for these are set out below.
(§2) Cell Based Assay for Detection of Kynurenine Produced by TDO and/or IDO
(§3) A172 (human glioblastoma) and SKOV3 (human ovarian adenocarcinoma) cells were seeded in a 96 well plate at 30,000 or 40,000 cells per well respectively in phenol red-free RPMI supplemented with 10% FCS, 2 mM L-glutamine and 500 μM L-tryptophan. IDO expression was induced in the SKOV3 cells by the addition of 500 ng/ml IFN-γ. Cells were incubated at 37° C. with or without the addition of test compound. After 48 hours, the cells were removed by centrifugation and Erhlich's reagent was added to the supernatant. The Erhlich's reagent was incubated for 5 minutes before the absorbance was read at 490 nm.

[2] = target: T2, IDO (Homo sapiens (Human), UniProt P14902); experiment: SKOV3 kynurenine cell-based assay (IDO induced by IFN-γ); settings: SKOV3 human ovarian adenocarcinoma cells, 500 ng/ml IFN-γ, 500 μM L-tryptophan, 48 hours
T2 sequence (P14902 whole entry): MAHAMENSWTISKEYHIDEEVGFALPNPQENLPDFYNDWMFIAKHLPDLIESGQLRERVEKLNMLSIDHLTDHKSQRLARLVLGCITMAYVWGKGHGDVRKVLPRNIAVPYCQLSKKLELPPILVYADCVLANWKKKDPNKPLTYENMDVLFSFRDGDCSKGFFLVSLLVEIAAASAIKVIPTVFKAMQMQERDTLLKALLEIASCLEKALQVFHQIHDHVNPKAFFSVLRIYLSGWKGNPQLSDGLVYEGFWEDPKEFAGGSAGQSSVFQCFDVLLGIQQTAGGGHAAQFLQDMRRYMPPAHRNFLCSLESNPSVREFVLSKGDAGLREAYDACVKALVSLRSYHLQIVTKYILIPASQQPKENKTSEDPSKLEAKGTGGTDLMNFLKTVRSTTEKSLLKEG
Method: as §1, §2, §3

[3] = target: T3, IDO1 (Homo sapiens (Human), UniProt P14902); experiment: IDO1 Enzyme Assay; assay type: biochemical; settings: HIS-tagged recombinant IDO1, tryptophan substrate, fluorescence readout; for IC50: read-out: IDO1 Enzyme, pIC50 (converted)
T3 sequence (P14902 whole entry): as above
Method: Compounds to be tested were serially diluted in ten 3-fold steps in DMSO starting from 10 mM DMSO stocks. Compound dilutions or DMSO alone were then dispensed from the dilution plate into a Greiner black 384-well assay plate (catalog #781086) using an Echo 555 acoustic liquid handler (Labcyte).
HIS-tagged IDO1 protein was recombinantly expressed in Escherichia coli using ZYP5052 autoinduction media supplemented with 500 μM delta aminolevulinic acid for 48 hours at 16 degrees Celsius. IDO1 protein was purified using Ni^2+-affinity resin and size exclusion chromatography. Purified protein was then diluted in assay buffer (50 mM Tris pH 7.0, 1% glycerol, 20 uM methylene blue, 0.05% Tween-20, 20 mM sodium ascorbate, 100 units/mL catalase to obtain a final IDOL concentration of 40 nM. IDOL solution ([…]) or buffer alone ([…]) were dispensed to wells of the assay plate using a BioRAPTR liquid dispenser (Beckman Coulter). Assay plates containing compound and IDO1 enzyme were incubated at room temperature for 30 minutes. Afterwards, 10 μL of 400 μM tryptophan in assay buffer were added to each well of the assay plate using a BioRAPTR liquid dispenser. Plates were incubated at room temperature for 60 minutes and reactions were quenched by addition of 10 μL of 0.5 M methyl isonipecotate in dimethyl sulfoxide. Plates were sealed and incubated at 37 degrees Celsius for 4 hours or 50 degrees Celsius for 2 hours. The plates are allowed to cool and then centrifuged for 1 minute at 1000×g. The resulting fluoresence was measured in an Envision plate reader (Perkin Elmer) with a 400/25 nm excitation filter and an 510/20 nm emission filter.
Potencies were calculated by linear least squares fit to the four parameter logistic IC50 equation.

[4] = target: T3, IDO1; experiment: IDO1 HEK293 Cellular Assay; assay type: cell-based; settings: HEK293 cells transfected with Flag-IDO1, 200 μM L-Tryptophan, 20-24 hours; for IC50: read-out: HEK293 cell, pIC50 (converted)
Method: IDO1 HEK293 Cellular Assay
Compounds to be tested were serially diluted in ten 3-fold steps in DMSO starting from 10 mM DMSO stocks. Compound dilutions or DMSO alone were then dispensed from the dilution plate into a Greiner black 384-well assay plate (catalog #781086) using an Echo 550 acoustic liquid handler (Labcyte).
HEK293 cell pellets were resuspended to 5×10^5 cells/mL in complete HEK293 culture media (89% DMEM, 10% FBS, 1% penicilllin/streptomycin). Suspended cells (2 mL) were dispensed into each well of a 6-well Corning plate (Catalog#3516). Cells were allowed to attach and were incubated for 20 hours at 37 degrees Celsius in a 5% CO2 incubator. Flag-IDO1 vector (Genscript True ORF Gold, 2 ug) in 150 uL of Opti-MEM medium was added to each well of a Corning 24 well plate (Cat#3527) and incubated for 5 minutes at room temperature. To each well of the 24-well plate was added 150 μL Lipofectamine 2000 (Gibco) and the plate incubated at room temperature for 20-30 minutes. To each well of attached cells in the 6-well plate, 250 μL of the transfection mix from the 24well plate was gently added to each well and IDO1 protein was allowed to express for 24-30 hours at 37 degrees Celsius in a 5% CO2 incubator.
Media was removed from the cells which were then washed with 2 mL Dulbecco's phosphate-buffered saline (DPBS). After removal of DPBS, 0.5 mL of TrypLE (Gibco) was added and incubated at 5 minutes until cells lift from the surface of the wells. Complete HEK293 culture media (4 mL) was added to each well and cells were collected and pooled into a conical tube. Cells were pelleted at 200×g for 5 minutes and resuspended in an equal volume of complete DMEM medium. Cells were diluted to 4×10^5 cells per mL in complete HEK293 media. L-Tryptophan was added to added to give a final concentraiton of 200 μM. The diluted transfected cells (50 μL) or nontransfected cells (50 μL) were dispensed into wells of Greiner black 384-well assay plates (catalog #781086) containing previously diluted compounds. The plate is briefly mixed and centrifuged at 200×g for 10 seconds to collect cells at the bottom of the plate. Plates were covered and incubated for 20-24 hours at 37 degrees C. in a 5% CO2 incubator. Afterwards 10 μL of 0.5 M methyl isonipecotate in dimethyl sulfoxide was added to each well, mixed, sealed, and centrifuged at 500 rpm for 10 seconds. Plates were incubated at 37 degrees in a 5% CO2 incubator overnight to develop fluoresence. The plates are allowed to cool and then centrifuged for 1 minute at 1000×g. The resulting fluoresence was measured in an Envision plate reader (Perkin Elmer) with a 400/25 nm excitation filter and an 510/20 nm emission filter.
The fluoresence intensity of each well was corrected for the background observed in wells with untransfected cells and was expressed as a fraction of the intensity observed in wells of IDO1 transfected cells and DMSO only. Potencies were calculated by linear least squares fit to the four parameter logistic IC50 equation.

[5] = target: T1, TDO; experiment: hTDO biochemical coupled assay; settings: 330 μM L-tryptophan, 17 minutes at room temperature
Method: as §1
(§4) TDO and IDO Biochemical Coupled Assay
(§5) Recombinant human IDO or TDO was incubated in 50 mM KPO4 (pH 7.0), 0.5 mM EGTA, 0.5 mM EDTA, 0.05% Triton™ X100, 20 mM ascorbate, 10 μM methylene blue, 500 U/ml catalase, 50 μg/ml KynB (kynurenine formamidase). TDO assays were carried out in the presence of 330 μM L-tryptophan, while IDO assays had the addition of 45 μM L-tryptophan. After incubation for 17 minutes at room temperature the reactions were stopped by the addition of Erhlich's reagent and incubated at room temperature for 5 minutes before the fluorescence was read (Ex 475, Em530).

[6] = target: T2, IDO; experiment: hIDO biochemical coupled assay; settings: 45 μM L-tryptophan, 17 minutes at room temperature
Method: as §1, §4, §5

T1 sequence (P48775 whole entry): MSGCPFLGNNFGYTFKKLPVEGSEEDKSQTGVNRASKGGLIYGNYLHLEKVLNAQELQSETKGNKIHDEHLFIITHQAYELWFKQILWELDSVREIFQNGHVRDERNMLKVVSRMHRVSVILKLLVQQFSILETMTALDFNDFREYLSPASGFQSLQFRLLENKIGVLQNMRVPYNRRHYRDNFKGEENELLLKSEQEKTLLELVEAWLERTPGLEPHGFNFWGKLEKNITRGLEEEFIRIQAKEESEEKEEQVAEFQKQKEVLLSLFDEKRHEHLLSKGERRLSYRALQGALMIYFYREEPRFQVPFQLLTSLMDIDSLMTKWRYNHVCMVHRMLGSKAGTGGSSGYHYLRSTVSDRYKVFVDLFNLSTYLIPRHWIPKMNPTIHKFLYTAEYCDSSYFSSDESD

| SMILES | A172 Kynurenine cell based assay, pIC50 [1] | SKOV3 Kynurenine cell based assay, pIC50 [2] | IC50 [3] [nM] | IC50 [4] [nM] | other results |
| --- | --- | --- | --- | --- | --- |
| CC1(C)CN(c2cc(Br)cc3cncn23)CCN1S(C)(=O)=O [Compound 1021] | +++ (+++ = pIC50 ≥5.50) | +++ (+++ = pIC50 ≥5.50) | – | – | IDO1 Enzyme, pIC50 [3]: 6.8; HEK293 cell, pIC50 [4]: 6.7 |
| CN1C(=O)N(C2CCN(c3cc(C(F)(F)F)cc4cncn34)CC2)C(=O)C1(C)C [Compound 1034] | ++ (++ = pIC50 4.50-5.49) | ++ (++ = pIC50 4.50-5.49) | – | – | hTDO biochemical assay, pIC50 [5]: ++ (++ = pIC50 4.50-5.49); hIDO biochemical assay, pIC50 [6]: ++ (++ = pIC50 4.50-5.49) |
| Cc1noc(C2CCN(c3cc(C(F)(F)F)cc4cncn34)CC2)c1C(N)=O [Compound 1035, 3-methyl-5-{1-[7-(trifluoromethyl)imidazo[1,5-a]pyridin-5-yl]piperidin-4-yl}isoxazole-4-carboxamide] | – | – | 251 | 501 | – |

Further lines, with some results ahead:

| A172 Kynurenine cell based assay, pIC50 [1] | SKOV3 Kynurenine cell based assay, pIC50 [2] | IC50 [3] [nM] | IC50 [4] [nM] | SMILES | other results |
| --- | --- | --- | --- | --- | --- |
| – | – | 398 | 2510 | CNC(=O)c1c(C)noc1C1CCN(c2cc(C(F)(F)F)cc3cncn23)CC1 [Compound 1036, N,3-dimethyl-5-{1-[7-(trifluoromethyl)imidazo[1,5-a]pyridin-5-yl]piperidin-4-yl}isoxazole-4-carboxamide] | – |
| – | – | 794 | 3980 | Cn1c(N)c(N2CCN(c3cc(C(F)(F)F)cc4cncn34)CC2)c(=O)n(C)c1=O [Compound 1037, 6-amino-1,3-dimethyl-5-{4-[7-(trifluoromethyl)imidazo[1,5-a]pyridin-5-yl]piperazin-1-yl}pyrimidine-2,4(1H,3H)-dione] | – |
| – | – | 1000 | 794 | FC(F)(F)c1cc(N2CCC(n3cnnn3)CC2)n2cncc2c1 [Compound 1038, 5-[4-(1H-tetrazol-1-yl)piperidin-1-yl]-7-(trifluoromethyl)imidazo[1,5-a]pyridine] | – |
